# Tested on: Human HCT116 colon carcinoma cells
# Experiment: HCT116 Colon Carcinoma Cell Growth Inhibition
# Type: cell-based
# Conditions: 72 hr exposure, WST-1 growth fraction
# Experimental: HCT116 Colon Carcinoma Cell Growth Inhibition
# Human HCT116 colon carcinoma cells were grown monolayer culture in RPMI 1640 medium supplemented with 10% fetal bovine serum and 1% penicillin-streptomycin (GibcoBRL, Grand Island, N.Y.). HCT116 cells in exponential growth phase were exposed to various concentrations of the test compounds at 37° C. for 72 hr in 5% carbon dioxide/air. After exposure to the agent, the cells were washed with 0.9% phosphate buffered saline. Growth inhibition was determined using WST-1 cell proliferation reagent as described above. The results are expressed as the growth fraction of treated cells compared with control cultures. Representative compounds of the present invention were tested for efficacy against the human colon HCT116 tumor cells.
row,IC50 [µM],Molecule
1,40,"N-[2,4-dichlorobenzoyl]-tetrahydrobenzofuran-5-sulfonamide [Example 24]"
2,4.1,"O=C(NS(=O)(=O)c1ccc2c(c1)OCCO2)c1ccc(Cl)cc1Cl [Example 23, N-[2,4-dichlorobenzoyl]-2,3-dihydrobenzo[1,4]dioxane-6-sulfonamide]"

# Same assay, conditions: Homo sapiens, HCT-116, 72 hr exposure, WST-1 growth fraction
row,Molecule,IC50 [µM]
1,"Cc1ccc(C(=O)NS(=O)(=O)c2ccc3c(c2)OCO3)c(Br)c1 [Example 5, N-[4-methyl-2-bromobenzoyl]-benzo[1,3]dioxole-5-sulfonamide]",8.5
2,"Cc1cc(Cl)ccc1C(=O)NS(=O)(=O)c1ccc2c(c1)OCO2 [Example 3, N-[4-chloro-2-methylbenzoyl]-benzo[1,3]dioxole-5-sulfonamide]",6.4
3,"Cc1cc(Cl)ccc1C(=O)NS(=O)(=O)c1ccc2c(c1)CCO2 [Example 1, N-[4-chloro-2-methylbenzoyl]-2,3-dihydrobenzofuran-5-sulfonamide]",9.6
4,"O=C(NS(=O)(=O)c1ccc2c(c1)OCO2)c1ccc(Cl)cc1Br [Example 2, N-[4-chloro-2-bromobenzoyl]-benzo[1,3]dioxole-5-sulfonamide]",3.9
5,"O=C(NS(=O)(=O)c1ccc2c(c1)OCO2)c1ccc(Br)cc1Br [Example 6, N-[2,4-dibromobenzoyl]-benzo[1,3]dioxole-5-sulfonamide]",4.6
6,"O=C(NS(=O)(=O)c1ccc2c(c1)OCO2)c1ccc(Br)cc1Cl [Example 7, N-[4-bromo-2-chlorobenzoyl]-benzo[1,3]dioxole-5-sulfonamide]",13.9
7,"Cc1cc(Br)ccc1C(=O)NS(=O)(=O)c1ccc2c(c1)OCO2 [Example 4, N-[4-bromo-2-methylbenzoyl]-benzo[1,3]dioxole-5-sulfonamide]",7.5

# Results, then the molecule that gave them:
row,IC50 [µM],Molecule
1,19.8,"O=C(NS(=O)(=O)c1cc2ccccc2o1)c1ccc(Cl)cc1Cl [Example 17, N-[2,4-dichlorobenzoyl]-benzofuran-2-sulfonamide]"
2,10,"CN1CCc2ccc(S(=O)(=O)NC(=O)c3ccc(Cl)cc3Cl)cc21 [Example 26, N-[2,4-dichlorobenzoyl]-1-methyl-2,3-dihydro-1H-indole-6-sulfonamide]"
3,3.2,"O=C(NS(=O)(=O)c1ccc2c(c1)CCC2)c1ccc(Cl)cc1Cl [Example 28, N-[2,4-dichlorobenzoyl]-indane-5-sulfonamide]"
4,3.2,"O=C(NS(=O)(=O)c1ccc2c(c1)CC=C2)c1ccc(Cl)cc1Cl [Example 27, N-[2,4-dichlorobenzoyl]-3H-indene-5-sulfonamide]"
5,14.2,"O=C(NS(=O)(=O)c1ccc2ncsc2c1)c1ccc(Cl)cc1Cl [Example 18, N-[2,4-dichlorobenzoyl]-benzothiazole-6-sulfonamide]"
6,21.8,"O=C(NS(=O)(=O)c1cc2ccccc2s1)c1ccc(Cl)cc1Cl [Example 16, N-[2,4-dichlorobenzoyl]-benzo[b]thiophene-2-sulfonamide]"
7,2.1,"O=C(NS(=O)(=O)c1ccc2c(c1)OCO2)c1ccc(Cl)cc1Cl [Example 25, N-[2,4-dichlorobenzoyl]-benzo[1,3]dioxole-5-sulfonamide]"
8,26.2,"O=C(NS(=O)(=O)c1ccc2c(c1)CCC2=O)c1ccc(Cl)cc1Cl [Example 29, N-[2,4-dichlorobenzoyl]-1-oxo-indane-5-sulfonamide]"
9,4.6,"Cn1c(S(=O)(=O)NC(=O)c2ccc(Cl)cc2Cl)cc2ccccc21 [Example 31, N-[2,4-dichlorobenzoyl]-1-methyl-indole-2-sulfonamide]"

# Source: patent US7282595B2, “Antitumor benzoylsulfonamides” (Eli Lilly and Company, priority 2003, dated 2007)
